Read-outs that look alike come from different tables or passages of the source.

Assay [1] deals with T1, GLP-1R (Homo sapiens, UniProt P43220). Kind of assay: HitHunter cAMP assay (GLP-1R). Conditions: cAMP; for Emax: read-out: (Emax) GLP-1R; for EC50: read-out: EC50 GLP-1R/nM. It counts as cell-based. A digest of the protocol: (§1)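 Duplicate 22-point, 2-fold agonist titrations applied to receptor-expressing suspension cells in IBMX-containing HBSS; 30 min RT stimulation. Read: luminescent cAMP immunocompetition after O/N dark incubation.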

In a further assay the target is T2, GIP-R (Homo sapiens, UniProt P48546).
T2 sequence (P48546 22-466): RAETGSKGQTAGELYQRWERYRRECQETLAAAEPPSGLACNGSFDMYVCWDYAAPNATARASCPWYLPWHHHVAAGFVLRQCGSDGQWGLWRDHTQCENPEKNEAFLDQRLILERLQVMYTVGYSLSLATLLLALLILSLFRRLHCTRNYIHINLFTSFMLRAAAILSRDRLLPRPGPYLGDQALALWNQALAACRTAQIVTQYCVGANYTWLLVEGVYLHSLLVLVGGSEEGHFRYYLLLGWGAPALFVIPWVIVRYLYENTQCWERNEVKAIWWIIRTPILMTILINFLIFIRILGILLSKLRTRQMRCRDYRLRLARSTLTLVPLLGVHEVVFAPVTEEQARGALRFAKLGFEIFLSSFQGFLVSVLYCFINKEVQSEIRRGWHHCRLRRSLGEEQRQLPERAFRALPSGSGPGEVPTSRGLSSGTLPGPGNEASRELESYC
Kind of assay: HitHunter cAMP assay (GIP-R). In kind it is cell-based. To be noted: cAMP; for Emax: read-out: (Emax) GIP-R; for EC50: read-out: EC50 GIP-R/nM. A digest of the protocol: as §1
(Changes in cAMP serve as a functional read-out for many G protein-coupled receptors.)

The subject of another assay is mice. Kind of assay: Glucose tolerance test (GTT). It counts as in vivo, mouse. To be noted: 24 h GTT, s.c., dose range 2-5 nmol/kg, percent of vehicle. The method, then:
Freestyle Lite glucometer and strips; compounds to be tested; sterilized glucose solution 200 mg/ml.
Compounds were diluted in PBS from the 1 mM DMSO stocks right before injection. Body weight and baseline blood glucose level for each mouse were measured. Tails were snipped using sterile scissors; blood from tails was used to measure glucose. For 0.25 h GTT, mice were fasted for 5-6 h and injected with compound subcutaneously 15 mins before glucose injection. For 4 h GTT, mice were fasted O/N for 16 h and injected with compound subcutaneously 4 h before glucose injection. For 16 h GTT, mice were injected with compound subcutaneously 16 h before glucose injection; food was removed at the same time. For 24 h GTT, mice were injected with compound subcutaneously 24 h before glucose injection; food was removed 5-6 h before glucose injection. 20% glucose in water was prepared; the solution was sterilized by 0.2 μm-filtration. An intraperitoneal injection of glucose (2 g/kg) was given to the mouse. Continued to take blood samples from the tail. Blood glucose was measured at 10, 20, 30, 40, 60, 90, and 120 minutes after glucose injection. Between each of these time points, the mouse was returned to its cage and monitored (at least 6 replicate mice were used for each time-point). The average glucose measurements were plotted as a function of time and the area under the curve (AUC) was determined.

For assay [2], the target named is T1, GLP-1R. Kind of assay: PathHunter β-arrestin assay. In kind it is cell-based. To be noted: PathHunter β-arrestin assay; read-out: β-arrestin activity EC50. A digest of the protocol: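 Following a 90 min agonist exposure at 37 °C in 0.2% BSA medium, β-arrestin coupling was detected by chemiluminescence after 3 h at room temperature.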

T1 sequence (P43220 24-463): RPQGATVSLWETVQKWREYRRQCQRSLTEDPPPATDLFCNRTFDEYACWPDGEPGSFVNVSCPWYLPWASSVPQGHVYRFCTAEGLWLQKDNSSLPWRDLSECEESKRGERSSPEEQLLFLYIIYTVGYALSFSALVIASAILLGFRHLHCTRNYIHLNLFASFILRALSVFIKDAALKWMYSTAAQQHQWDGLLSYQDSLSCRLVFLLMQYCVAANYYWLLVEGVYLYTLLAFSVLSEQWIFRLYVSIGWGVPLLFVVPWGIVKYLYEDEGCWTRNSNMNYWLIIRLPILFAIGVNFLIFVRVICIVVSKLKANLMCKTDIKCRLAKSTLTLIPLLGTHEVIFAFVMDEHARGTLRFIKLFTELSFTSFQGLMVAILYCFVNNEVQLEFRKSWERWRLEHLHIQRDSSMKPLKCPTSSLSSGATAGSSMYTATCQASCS

The Emax is the greatest response seen or fitted, relative to the assay's reference. With `CCCCCCCCCCCCCCCC(=O)N[C@@H](CCC(=O)NCCCC[C@H](NC(=O)[C@H](CO)NC(=O)[C@@H]1CCCN1C(=O)[C@@H]1CCCN1C(=O)[C@@H]1CCCN1C(=O)[C@H](C)NC(=O)CNC(=O)[C@H](CO)NC(=O)[C@H](CO)NC(=O)[C@@H]1CCCN1C(=O)CNC(=O)CNC(=O)[C@H](C)NC(=O)[C@H](CC(C)C)NC(=O)[C@H](CC(C)C)NC(=O)[C@H](Cc1c[nH]c2ccccc12)NC(=O)[C@H](CC(N)=O)NC(=O)[C@@H](NC(=O)[C@H](Cc1ccccc1)NC(=O)[C@H](CCC(=O)O)NC(=O)C(C)(C)NC(=O)[C@H](C)NC(=O)[C@H](C)NC(=O)[C@H](CCC(N)=O)NC(=O)[C@H](CCCCN)NC(=O)[C@H](CC(=O)O)NC(=O)[C@H](CC(C)C)NC(=O)[C@H](Cc1ccc(O)cc1)NC(=O)[C@@H](NC(=O)[C@H](CO)NC(=O)[C@H](Cc1ccc(O)cc1)NC(=O)[C@H](CC(=O)O)NC(=O)[C@H](CO)NC(=O)[C@@H](NC(=O)[C@H](Cc1ccccc1)NC(=O)[C@@H](NC(=O)CNC(=O)[C@H](CCC(=O)O)NC(=O)CSCC(=O)NCCN1C(=O)COC1=O)[C@@H](C)O)[C@@H](C)O)[C@@H](C)CC)C(C)C)C(N)=O)C(=O)O` [Compound 59], the Emax on GLP-1R [1] (Table 3) is 108%; on GLP-1R [1] (Table 3A) it was 108%; at GIP-R (Table 3) it was 31%; on GIP-R (Table 3A) it was 31%. Moreover, the EC50 at GLP-1R [1] (Table 3) was below 0.1 nM; at GLP-1R [1] (Table 3A), below 0.1 nM; on GIP-R (Table 3) it was 1 to 10 nM; at GIP-R (Table 3A) it was 1 to 10 nM. Moreover, in the assay on mice, the AUC score is 3 (AUC score 3 = 51-75%).

With `CCCCCCCCCCCCCCCC(=O)N[C@@H](CCC(=O)NCCCC[C@H](NC(=O)[C@H](CO)NC(=O)[C@@H]1CCCN1C(=O)[C@@H]1CCCN1C(=O)[C@@H]1CCCN1C(=O)[C@H](C)NC(=O)CNC(=O)[C@H](CO)NC(=O)[C@H](CO)NC(=O)[C@@H]1CCCN1C(=O)CNC(=O)CNC(=O)[C@H](C)NC(=O)[C@H](CC(C)C)NC(=O)[C@H](CC(C)C)NC(=O)[C@H](Cc1c[nH]c2ccccc12)NC(=O)[C@H](CC(N)=O)NC(=O)[C@@H](NC(=O)[C@H](Cc1ccccc1)NC(=O)[C@H](CCC(=O)O)NC(=O)C(C)(C)NC(=O)[C@H](C)NC(=O)[C@H](C)NC(=O)[C@H](CCC(N)=O)NC(=O)[C@H](CCCCN)NC(=O)[C@H](CC(=O)O)NC(=O)[C@H](CC(C)C)NC(=O)[C@H](Cc1ccc(O)cc1)NC(=O)[C@@H](NC(=O)[C@H](CO)NC(=O)[C@H](Cc1ccc(O)cc1)NC(=O)[C@H](CC(=O)O)NC(=O)[C@H](CO)NC(=O)[C@@H](NC(=O)[C@H](Cc1ccccc1)NC(=O)[C@@H](NC(=O)CNC(=O)[C@H](CCC(=O)O)NC(=O)CSCC(=O)NCCN1CCSC1=O)[C@@H](C)O)[C@@H](C)O)[C@@H](C)CC)C(C)C)C(N)=O)C(=O)O` [Compound 86], the Emax came to 110% at GLP-1R [1] (Table 3), 110% on GLP-1R [1] (Table 3A), 61% at GIP-R (Table 3) and 61% on GIP-R (Table 3A). The EC50 at GLP-1R [1] (Table 3) was 0.1 to 1 nM; on GLP-1R [1] (Table 3A) it was 0.1 to 1 nM; at GIP-R (Table 3) it was 1 to 10 nM; at GIP-R (Table 3A), 1 to 10 nM; at GLP-1R [2], above 1000 nM.

The values above are taken from US20260176320A1, “MODULATORS OF G-PROTEIN COUPLED RECEPTORS” (priority 2018, published 2026).
